The text below walks through data of ChEMBL document CHEMBL1152749, “Haemolytic activity, cytotoxicity and membrane cell permeabilization of semi-synthetic and natural lupane- and oleanane-type saponins” (Bioorg Med Chem, 2009).

In data set [1] the test system is A549. As to the kind of experiment: Cell membrane permeabilization in human A549 cells assessed as drug level causing decrease in calcein fluorescence. It is filed as ADME, cell-based.
For data set [2], the system named is DLD-1. As to the kind of experiment: Cell membrane permeabilization in human DLD1 cells assessed as drug level causing decrease in calcein fluorescence. The format is ADME, cell-based.
The nature of data set [3]: Cell membrane permeabilization in human WS1 cells assessed as drug level causing decrease in calcein fluorescence. It is filed as ADME, cell-based.
Data set [4] in a line: Toxicity in sheep erythrocytes assessed as induction of hemolysis. It is filed as cell-based, Ovis aries, Erythrocyte. The settings on record: read-out: HD50 (the source's name).
Data set [5] concerns A549. As to the kind of experiment: Cytotoxicity against human A549 cells after 48 hrs by resazurin reduction test. The note with it: A549, 48 h. The format is functional, cell-based.
In data set [6] the test system is DLD-1. As to the kind of experiment: Cytotoxicity against human DLD1 cells after 48 hrs by resazurin reduction test. It is filed as functional, cell-based. The note with it: DLD-1, 48 h.
Data set [7] is described as follows: Cytotoxicity against human WS1 cells after 48 hrs by resazurin reduction test. It is filed as cell-based. The note with it: WS1, 48 h.

Some results are limits rather than exact numbers.

Take `C=C(C)[C@@H]1CC[C@]2(CO[C@@H]3O[C@H](CO)[C@@H](O)[C@H](O)[C@H]3O)CC[C@]3(C)[C@H](CC[C@@H]4[C@@]5(C)CC[C@H](O[C@@H]6OC[C@H](O)[C@H](O)[C@H]6O)C(C)(C)[C@@H]5CC[C@]43C)[C@@H]12`: the IC50 (in the data set with A549 [1]; in the data set with DLD-1 [2]; in data set [3]) was > 200 µM each time. Further, the HC50 in data set [4] was > 100 µM.
As to `C=C(C)[C@@H]1CC[C@]2(C(=O)O[C@@H]3O[C@H](CO)[C@@H](O)[C@H](O)[C@H]3O)CC[C@]3(C)[C@H](CC[C@@H]4[C@@]5(C)CC[C@H](O[C@@H]6OC[C@H](O)[C@H](O)[C@H]6O)C(C)(C)[C@@H]5CC[C@]43C)[C@@H]12`, the half-maximal inhibitory concentration (IC50) (in the data set with A549 [1]; in the data set on DLD-1 [2]; in data set [3]) was > 200 µM each time. Besides, the HC50 in data set [4] was > 100 µM.
For the compound `C=C(C)[C@@H]1CC[C@]2(C(=O)O)CC[C@]3(C)[C@H](CC[C@@H]4[C@@]5(C)CC[C@H](O[C@@H]6O[C@H](CO)[C@@H](O)[C@H](O)[C@H]6O)C(C)(C)[C@@H]5CC[C@]43C)[C@@H]12`, the IC50 was > 200 µM in the data set on A549 [1]; > 200 µM in the data set on DLD-1 [2]; > 100 µM in the data set with A549 [5]; 32 µM in the data set on DLD-1 [6]; > 200 µM in data set [3]; > 100 µM in data set [7]. The HC50 in data set [4] is > 100 µM.
With `C=C(C)[C@@H]1CC[C@]2(C(=O)O[C@@H]3O[C@H](CO)[C@@H](O)[C@H](O)[C@H]3O)CC[C@]3(C)[C@H](CC[C@@H]4[C@@]5(C)CC[C@H](O)C(C)(C)[C@@H]5CC[C@]43C)[C@@H]12`, the IC50 (in the data set on A549 [1]; in the data set on DLD-1 [2]; in data set [3]) was > 200 µM throughout. In data set [4], the HC50 was > 100 µM.
In the case of `C=C(C)[C@@H]1CC[C@]2(CO)CC[C@]3(C)[C@H](CC[C@@H]4[C@@]5(C)CC[C@H](O[C@H]6O[C@H](CO)[C@@H](O)[C@H](O)[C@@H]6O)C(C)(C)[C@@H]5CC[C@]43C)[C@@H]12`, the IC50 (with A549 [1]; in the data set on DLD-1 [2]; in data set [3]) was > 200 µM each time. In data set [4], the HC50 was > 100 µM.
`C=C(C)[C@@H]1CC[C@]2(CO)CC[C@]3(C)[C@H](CC[C@@H]4[C@@]5(C)CC[C@H](O)C(C)(C)[C@@H]5CC[C@]43C)[C@@H]12` [BETULIN]: the IC50 (with A549 [1]; with DLD-1 [2]; in data set [3]) was > 200 µM each time. Further, in data set [4], the HC50 was > 100 µM.
For `C[C@@H]1O[C@@H](O[C@H]2[C@H](O[C@H]3CC[C@@]4(C)[C@@H](CC[C@]5(C)[C@@H]4CC=C4[C@@H]6CC(C)(C)CC[C@]6(C(=O)O)CC[C@]45C)[C@]3(C)CO)OC[C@H](O[C@@H]3O[C@H](CO)[C@@H](O)[C@H](O)[C@H]3O)[C@@H]2O)[C@H](O)[C@H](O)[C@H]1O` [HEDERACOLCHISIDE A], the IC50 with A549 [1] is 110 µM; with DLD-1 [2] it was 159 µM; with A549 [5] it was 59 µM; in the data set with DLD-1 [6], 62 µM; in data set [3], 86 µM; in data set [7], 58 µM. In data set [4], the HC50 came to 22 µM.
For `C=C(C)[C@@H]1CC[C@]2(C(=O)O[C@@H]3O[C@@H](C)[C@H](O)[C@@H](O)[C@H]3O)CC[C@]3(C)[C@H](CC[C@@H]4[C@@]5(C)CC[C@H](O[C@@H]6O[C@@H](C)[C@H](O)[C@@H](O)[C@H]6O)C(C)(C)[C@@H]5CC[C@]43C)[C@@H]12`, the IC50 (in the data set with A549 [1]; in the data set on DLD-1 [2]; in data set [3]) was > 200 µM each time. Besides, in data set [4], the HC50 is 85 µM.
Turning to `C=C(C)[C@@H]1CC[C@]2(CO[C@@H]3O[C@H](CO)[C@@H](O)[C@H](O)[C@H]3O)CC[C@]3(C)[C@H](CC[C@@H]4[C@@]5(C)CC[C@H](O[C@@H]6O[C@@H](C)[C@H](O)[C@@H](O)[C@H]6O)C(C)(C)[C@@H]5CC[C@]43C)[C@@H]12`, the half-inhibitory concentration (IC50) (with A549 [1]; in the data set with DLD-1 [2]; in data set [3]) was > 200 µM throughout. In addition, in data set [4], the HC50 was > 100 µM.
As for `C=C(C)[C@@H]1CC[C@]2(C(=O)O[C@@H]3O[C@H](CO)[C@@H](O)[C@H](O)[C@H]3O)CC[C@]3(C)[C@H](CC[C@@H]4[C@@]5(C)CC[C@H](O[C@@H]6O[C@@H](C)[C@H](O)[C@@H](O)[C@H]6O)C(C)(C)[C@@H]5CC[C@]43C)[C@@H]12`, the IC50 (in the data set with A549 [1]; in the data set on DLD-1 [2]; in data set [3]) was > 200 µM throughout. Further, in data set [4], the HC50 is > 100 µM.
Turning to `C=C(C)[C@@H]1CC[C@]2(C(=O)O)CC[C@]3(C)[C@H](CC[C@@H]4[C@@]5(C)CC[C@H](O[C@@H]6OC[C@@H](O)[C@H](O)[C@H]6O)C(C)(C)[C@@H]5CC[C@]43C)[C@@H]12`, the IC50 (with A549 [1]; in the data set on DLD-1 [2]; in data set [3]) was > 200 µM throughout. Also, the HC50 in data set [4] is > 100 µM.
For `C=C(C)[C@@H]1CC[C@]2(C(=O)O[C@@H]3O[C@H](CO)[C@@H](O)[C@H](O)[C@H]3O)CC[C@]3(C)[C@H](CC[C@@H]4[C@@]5(C)CC[C@H](O[C@@H]6O[C@H](CO)[C@@H](O)[C@H](O)[C@H]6O)C(C)(C)[C@@H]5CC[C@]43C)[C@@H]12`, the IC50 (in the data set on A549 [1]; with DLD-1 [2]; in data set [3]) was > 200 µM each time. For the same compound, the HC50 in data set [4] is > 100 µM.
Turning to `C=C(C)[C@@H]1CC[C@]2(CO[C@@H]3O[C@@H](C)[C@H](O)[C@@H](O)[C@H]3O)CC[C@]3(C)[C@H](CC[C@@H]4[C@@]5(C)CC[C@H](O[C@@H]6O[C@@H](C)[C@H](O)[C@@H](O)[C@H]6O)C(C)(C)[C@@H]5CC[C@]43C)[C@@H]12`, the IC50 (in the data set with A549 [1]; with DLD-1 [2]; in data set [3]) was > 200 µM in each case. Besides, the HC50 in data set [4] is > 100 µM.
Regarding `C=C(C)[C@@H]1CC[C@]2(CO[C@@H]3O[C@H](CO)[C@@H](O)[C@H](O)[C@H]3O)CC[C@]3(C)[C@H](CC[C@@H]4[C@@]5(C)CC[C@H](O[C@@H]6O[C@H](CO)[C@@H](O)[C@H](O)[C@H]6O)C(C)(C)[C@@H]5CC[C@]43C)[C@@H]12`, the 50% inhibitory concentration (IC50) (in the data set on A549 [1]; in the data set with DLD-1 [2]; in data set [3]) was > 200 µM each time. Also, in data set [4], the HC50 was > 100 µM.
As to `C=C(C)[C@@H]1CC[C@]2(C(=O)O)CC[C@]3(C)[C@H](CC[C@@H]4[C@@]5(C)CC[C@H](O)C(C)(C)[C@@H]5CC[C@]43C)[C@@H]12` [BETULINIC ACID], the IC50 (in the data set with A549 [1]; in the data set with DLD-1 [2]; in data set [3]) was > 200 µM throughout. For the same compound, the HC50 in data set [4] was > 100 µM.
Regarding `C=C(C)[C@@H]1CC[C@]2(C(=O)O)CC[C@]3(C)[C@H](CC[C@@H]4[C@@]5(C)CC[C@H](O[C@H]6O[C@H](CO)[C@@H](O)[C@H](O)[C@@H]6O)C(C)(C)[C@@H]5CC[C@]43C)[C@@H]12`, the IC50 (in the data set on A549 [1]; in the data set with DLD-1 [2]; in data set [3]) was > 200 µM throughout. Further, in data set [4], the HC50 is > 100 µM.
